Results published in patent US8916570B2 (The United States of America, as represented by the …, priority 2008, dated 2014).
Changes are numbered by the printed parent chain. Like-named read-outs stand apart in the source and are kept apart here. Marks after values point to notes of the source that are not given here. Blank lines part the entries; values can stand above or below the molecule they belong to.

Key:
[1] = biological target: T1, human A3 receptor (Homo sapiens, UniProt P0DMS8); test: Binding assay at the human A3 receptor, CHO membranes (Example 4)
T1 sequence (P0DMS8 1-318): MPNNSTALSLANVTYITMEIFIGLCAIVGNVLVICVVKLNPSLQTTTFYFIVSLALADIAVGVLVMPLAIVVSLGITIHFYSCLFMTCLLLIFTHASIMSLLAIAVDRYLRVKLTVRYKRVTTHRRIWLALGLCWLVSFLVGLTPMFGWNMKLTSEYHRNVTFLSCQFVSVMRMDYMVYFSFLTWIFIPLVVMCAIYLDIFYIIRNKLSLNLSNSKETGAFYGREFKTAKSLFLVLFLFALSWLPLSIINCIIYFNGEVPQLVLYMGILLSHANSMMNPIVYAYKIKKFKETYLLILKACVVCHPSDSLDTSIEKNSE

[2] = biological target: T2, human A2A receptors (Homo sapiens, UniProt P29274); test: Binding at human A2A receptor, HEK-293 membranes (Example 4); settings: read-out: Affinity (Ki nM) A2A
T2 construct: expressed in transfected cells

[3] = biological target: T3, human A1 receptors (Homo sapiens, UniProt P30542); test: Binding at human A1 receptor, CHO membranes (Example 4); settings: read-out: Affinity (Ki nM) A1
T3 construct: expressed in transfected cells; host or cells: CHO
T3 sequence (P30542 1-326): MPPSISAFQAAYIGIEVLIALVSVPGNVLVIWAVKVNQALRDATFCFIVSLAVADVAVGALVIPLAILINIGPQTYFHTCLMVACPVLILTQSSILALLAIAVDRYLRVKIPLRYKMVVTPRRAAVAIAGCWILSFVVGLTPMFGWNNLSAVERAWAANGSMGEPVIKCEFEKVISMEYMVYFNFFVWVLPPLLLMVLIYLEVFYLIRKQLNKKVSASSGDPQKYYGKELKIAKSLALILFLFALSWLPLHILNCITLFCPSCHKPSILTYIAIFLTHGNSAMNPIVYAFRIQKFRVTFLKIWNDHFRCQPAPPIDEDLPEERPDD

[4] = biological target: T4, rat A1 AR (Rattus norvegicus, UniProt P25099); settings: species R (rat); data from Lee et al.; cited from earlier work
T4 sequence (P25099 1-326): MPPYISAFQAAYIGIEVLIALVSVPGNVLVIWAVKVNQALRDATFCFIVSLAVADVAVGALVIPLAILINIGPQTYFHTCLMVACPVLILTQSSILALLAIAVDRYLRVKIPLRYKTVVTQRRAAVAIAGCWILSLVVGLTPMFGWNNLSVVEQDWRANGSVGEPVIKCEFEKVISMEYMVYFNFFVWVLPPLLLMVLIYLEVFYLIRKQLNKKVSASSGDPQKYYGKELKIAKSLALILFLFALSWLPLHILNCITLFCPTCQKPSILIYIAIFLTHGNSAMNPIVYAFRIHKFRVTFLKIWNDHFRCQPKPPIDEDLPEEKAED

[5] = biological target: T5, mouse A1 adenosine receptor (Mus musculus, UniProt Q60612); test: Competition radioligand binding, mouse A1 AR, HEK293 membranes (Table 1); settings: read-out: A1 Ki; species M (mouse); [125I]I-AB-MECA; mean ± SEM
T5 sequence (Q60612 1-326): T4 sequence (P25099 1-326) with V151E, D155A, R157I, D316E, L319I, E325D

[6] = biological target: T6, mouse A3 adenosine receptor (Mus musculus, UniProt Q61618); test: Competition radioligand binding, mouse A3 AR, HEK293 membranes (Table 1); settings: for Ki: read-out: A3 Ki, species M (mouse), [125I]I-AB-MECA
T6 sequence (Q61618 1-319): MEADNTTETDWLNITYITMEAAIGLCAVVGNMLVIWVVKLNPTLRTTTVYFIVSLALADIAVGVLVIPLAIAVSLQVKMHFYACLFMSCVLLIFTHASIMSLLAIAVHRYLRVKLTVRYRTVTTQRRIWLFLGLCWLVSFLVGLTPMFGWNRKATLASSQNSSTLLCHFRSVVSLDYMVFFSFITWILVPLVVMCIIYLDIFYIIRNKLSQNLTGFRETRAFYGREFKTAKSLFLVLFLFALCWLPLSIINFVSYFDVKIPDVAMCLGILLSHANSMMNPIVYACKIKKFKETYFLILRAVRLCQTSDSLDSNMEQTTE

[7] = biological target: T7, hA2AAR (Homo sapiens, UniProt P29274); settings: cited from earlier work
T7 construct: expressed in transfected cells

[8] = biological target: T8, mA3AR (Mus musculus, UniProt Q61618); settings: values from Melman et al.; read-out: Affinity (Ki, nM) mA3; cited from earlier work
T8 construct: expressed in transfected cells
T8 sequence (Q61618 1-319): T6 sequence (Q61618 1-319)

[9] = biological target: T9, rat A3 AR (Rattus norvegicus, UniProt P28647); settings: species R (rat); data from Tchilibon et al. / Lee et al.; cited from earlier work
T9 sequence (P28647 1-320): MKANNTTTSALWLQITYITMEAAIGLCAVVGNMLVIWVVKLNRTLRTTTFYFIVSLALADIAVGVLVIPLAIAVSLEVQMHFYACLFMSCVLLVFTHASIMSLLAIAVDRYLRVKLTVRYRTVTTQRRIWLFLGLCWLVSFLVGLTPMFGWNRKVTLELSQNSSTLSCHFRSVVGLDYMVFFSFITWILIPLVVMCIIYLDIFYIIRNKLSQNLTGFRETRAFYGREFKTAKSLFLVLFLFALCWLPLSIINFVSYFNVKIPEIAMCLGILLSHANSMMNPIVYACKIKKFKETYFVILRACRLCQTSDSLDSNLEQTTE

[10] = biological target: T10, hA1AR (Homo sapiens, UniProt P30542); settings: values from the literature (footnotes c, d); read-out: Affinity (Ki, nM) hA1; cited from earlier work
T10 construct: expressed in transfected cells; host or cells: CHO
T10 sequence (P30542 1-326): T3 sequence (P30542 1-326)

[11] = biological target: T11, mA1AR (Mus musculus, UniProt Q60612); settings: values from Melman et al.; read-out: Affinity (Ki, nM) mA1; cited from earlier work
T11 construct: expressed in transfected cells
T11 sequence (Q60612 1-326): T4 sequence (P25099 1-326) with V151E, D155A, R157I, D316E, L319I, E325D

[12] = biological target: T12, human A2A adenosine receptor (Homo sapiens, UniProt P29274); parameters: expressed in transfected cells; settings: species H (human), cited from earlier work
[13] = biological target: rat A2A AR (Rattus norvegicus, UniProt P30543); settings: species R (rat); data from Lee et al.; cited from earlier work
[14] = biological target: T13, human A1 adenosine receptor (Homo sapiens, UniProt P30542); test: Radioligand binding, human A1 AR, CHO membranes (Table 1); settings: read-out: A1 Ki; species H (human)
T13 sequence (P30542 1-326): T3 sequence (P30542 1-326)

[15] = biological target: T14, human A3AR (Homo sapiens, UniProt P0DMS8); test: Inhibition of forskolin-stimulated cyclic AMP production in AR transfected CHO cells (Table 1); assay type: cell-based; settings: at 10 μM, in comparison to maximal effect of full agonist 5′-N-ethylcarboxamidoadenosine at 100%
T14 construct: expressed in transfected cells; host or cells: CHO
T14 sequence (P0DMS8 1-318): T1 sequence (P0DMS8 1-318)

[16] = biological target: T15, human A3 adenosine receptor (Homo sapiens, UniProt P0DMS8); test: [125I]I-AB-MECA binding, human A3 AR, CHO membranes (Table 1)
T15 sequence (P0DMS8 1-318): T1 sequence (P0DMS8 1-318)

[17] = biological target: T16, hA3AR (Homo sapiens, UniProt P0DMS8); settings: at 10 μM vs maximal effect of 51 (= 100%); values from the literature; cited from earlier work
T16 construct: expressed in transfected cells; host or cells: CHO
T16 sequence (P0DMS8 1-318): T1 sequence (P0DMS8 1-318)

[18] = biological target: T16, hA3AR; settings: values from the literature (footnotes c, d); read-out: Affinity (Ki, nM) hA3; cited from earlier work
[19] = biological target: T12, human A2A adenosine receptor; test: Radioligand binding, human A2A AR (Table 1); settings: read-out: A2A Ki; species H (human)
[20] = biological target: T13, human A1 adenosine receptor; parameters: expressed in transfected cells; host or cells: CHO; settings: species H (human); data from Tchilibon et al. or Kim et al.; cited from earlier work
[21] = biological target: T15, human A3 adenosine receptor; parameters: expressed in transfected cells; host or cells: CHO; settings: species H (human); data from Tchilibon et al. or Kim et al.; cited from earlier work
[22] = biological target: mouse A2A adenosine receptor (Mus musculus, UniProt Q60613); test: Competition radioligand binding, mouse A2A AR, HEK293 membranes (Table 1); settings: read-out: A2A Ki; species M (mouse); [3H]CGS21680
Chain of mouse A2A adenosine receptor (Q60613 whole entry): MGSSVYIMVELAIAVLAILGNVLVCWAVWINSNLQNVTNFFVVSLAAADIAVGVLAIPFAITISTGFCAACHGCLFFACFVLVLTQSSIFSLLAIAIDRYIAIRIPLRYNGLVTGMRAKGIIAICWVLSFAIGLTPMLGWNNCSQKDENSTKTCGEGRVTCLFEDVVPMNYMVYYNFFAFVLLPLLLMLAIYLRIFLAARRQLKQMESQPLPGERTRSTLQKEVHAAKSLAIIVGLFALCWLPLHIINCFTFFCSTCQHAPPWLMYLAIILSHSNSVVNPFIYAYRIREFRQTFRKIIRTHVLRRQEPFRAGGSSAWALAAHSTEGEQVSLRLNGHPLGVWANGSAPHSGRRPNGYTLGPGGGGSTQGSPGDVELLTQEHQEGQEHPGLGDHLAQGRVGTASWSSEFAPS

T12 sequence (P29274 whole entry): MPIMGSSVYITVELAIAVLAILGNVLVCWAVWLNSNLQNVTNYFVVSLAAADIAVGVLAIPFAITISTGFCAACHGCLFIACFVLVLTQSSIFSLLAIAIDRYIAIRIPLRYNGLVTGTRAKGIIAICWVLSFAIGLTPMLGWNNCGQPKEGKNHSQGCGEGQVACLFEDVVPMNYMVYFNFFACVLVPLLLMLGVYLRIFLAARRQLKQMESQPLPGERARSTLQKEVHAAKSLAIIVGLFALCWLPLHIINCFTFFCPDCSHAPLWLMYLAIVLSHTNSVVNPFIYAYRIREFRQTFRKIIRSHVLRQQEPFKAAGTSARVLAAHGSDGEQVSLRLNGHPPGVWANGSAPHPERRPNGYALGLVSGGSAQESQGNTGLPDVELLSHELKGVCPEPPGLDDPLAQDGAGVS
T7 sequence (P29274 whole entry): as above
T2 sequence (P29274 whole entry): as above
Chain of rat A2A AR (P30543 whole entry): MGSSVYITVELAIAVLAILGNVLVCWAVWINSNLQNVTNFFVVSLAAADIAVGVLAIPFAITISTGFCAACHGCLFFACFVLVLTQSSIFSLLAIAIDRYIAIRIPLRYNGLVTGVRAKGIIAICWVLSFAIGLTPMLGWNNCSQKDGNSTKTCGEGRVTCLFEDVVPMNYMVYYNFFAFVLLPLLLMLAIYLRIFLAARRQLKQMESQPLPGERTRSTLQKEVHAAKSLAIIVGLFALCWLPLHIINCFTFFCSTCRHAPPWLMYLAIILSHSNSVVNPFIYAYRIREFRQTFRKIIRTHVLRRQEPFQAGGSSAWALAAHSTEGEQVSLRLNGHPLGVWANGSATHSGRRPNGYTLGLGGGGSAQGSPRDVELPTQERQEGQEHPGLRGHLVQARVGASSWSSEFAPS

SMILES: OC1C(O)C(n2cnc3c(NC4CC4c4ccccc4)nc(Cl)nc32)C2CC12 (stereo not drawn) [Compound 113b, (1′R,2′R,3′S, 4′R,5′S)-4′-[2-Chloro-6-(trans-2-phenylcyclopropylamino)purine]-2′,3′-O-dihydroxybicyclo-[3.1.0]hexane]
binding to the A3AR (in words) [1]: nanomolar binding affinity
Ki [2]: 2010 nM
Ki [3]: 1790 nM

SMILES: CNC(=O)[C@@]12C[C@@H]1[C@@H](n1cnc3c(NC)nc(Cl)nc31)[C@H](O)[C@@H]2O [Compound 12]
Ki [4]: 805 nM
Ki [5]: 55.3 ± 6 nM
Ki [6]: 49 ± 3.9 nM
% inhibition hA2A ([7]; inhibition of radioligand binding at 10 μM, values from the literature): (6%)
Ki [8]: 49 ± 3.9 nM
Ki [9]: 160 ± 30 nM
Ki [10]: 2100 ± 1700 nM
Ki [11]: 55.3 ± 6 nM
A2A % inhib. ([12]; percent inhibition at 10 μM, data from Tchilibon et al.): (6%)^d,f
Ki [13]: > 10000 nM
Ki [14]: 2010 ± 1700 nM

SMILES: CNC(=O)[C@@]12C[C@@H]1[C@@H](n1cnc3c(NCc4cccc(I)c4)ncnc31)[C@H](O)[C@@H]2O [Compound 31]
% Efficacy at the human A3 AR [15]: 100^j %
Selectivity A1/A3 ([16]; human): up to 1900
Ki ([16]; read-out: A3 Ki, species H (human)): 2.4 ± 0.5 nM
Ki ([7]; values from the literature (footnotes c, d), read-out: Affinity (Ki, nM) hA2A): 6200 ± 100 nM
% Efficacy hA3 [17]: 100%
Ki [18]: 2.4 ± 0.5 nM
Ki [10]: 700 ± 270 nM
Ki [19]: 6200 ± 100 nM
Ki [14]: 700 ± 270 nM

Continued, in another order:

Ki [3]: 3000 nM
SMILES: COc1ccc(OC)c(CNc2nc(Cl)nc3c2ncn3C2C(O)C(O)C3CC32)c1 (stereo not drawn) [Compound 111b, (1′R,2′R,3′S, 4′R,5′S)-4′-[2-Chloro-6-(2,5-dimethoxybenzylamino)purine]-2′,3′-O-dihydroxybicyclo-[3.1.0]hexane]

Ki [5]: 29 ± 3.3 nM
Selectivity A1/A3 ([6]; mouse): 17
Ki [6]: 1.72 ± 0.04 nM
Ki [22]: 44700 ± 5700 nM
SMILES: CNC(=O)[C@@]12C[C@@H]1[C@@H](n1cnc3c(NCc4cc(OC)ccc4OC)nc(Cl)nc31)[C@H](O)[C@@H]2O [Compound 17]
Ki [20]: 1600 nM
Ki [21]: 1.4 nM
Ki [9]: 0.87 nM
Ki ([12]; data from Tchilibon et al. or Kim et al.): 10000 nM
